Results from patent US5416194A, “Polypeptide having affinity for lipopolysaccharide and method for preparing the same” (Seikagaku Kogyo Co., Ltd., priority 1987, dated 1995).
Where no end group is shown, it is not given here.

Assays:
[1] = Gel precipitin reaction / double diffusion test in 1% agarose gel; assay type: binding
Protocol: In a solution of 1% agarose (0.1% NaN3 was added) dissolved in Tris-HCl-physiologic saline of pH 7.2, Beronall buffer of pH 8.6 and acetate buffer of pH 4.6, a sedimentation line was formed between LPS and the polypeptide (SEQ ID NO: 1) of the present invention or anti-LPS factor {basic protein having MW of 11,600, consisting of amino acid 102 residue obtained from extract (lysate) of Tachypleus tridentatus hemocyte; hereinafter referred to "ALF"}. The line was dyed in amide black. The diluent used for the polypeptide of the present invention was 50 mM Tris HCl--0.15M NaCl (pH 7.2).

[2] = tested on: non-sensitized erythrocyte; assay type: cell-based, human
[3] = tested on: LPS sensitized erythrocyte (human O-type); experiment: Hemolysis activity on LPS sensitized erythrocyte; assay type: cell-based
Protocol: To 1 ml of suspension containing mainly 2.5% human O-type erythrocyte, 0.5 ml of LPS (1 mg/ml ) was added and the mixture was shaken at […] for 1 hour to mix, followed by washing with saline solution.
A mixture of 50 μl of 0.5% LPS sensitized erythrocyte, 50 μl of 2-fold series diluted solution of 0.5% polypeptide of the present invention and 100 μl of Tris-HCl-buffered saline saline buffer (pH 7.2) was maintained at 37° C. for 1 hour and thereafter 2.3 ml of physiologic saline was added thereto, followed by centrifugation with 2,500 rpm for 10 minutes. The amount of hemoglobin in the supernatant was determined by use of […] absorption. Also, the hemolysis pattern on a micro plate was determined by use of a micro plate reader (Corona MPT-100: trade name) after maintaining a mixture of 50 μl of 0.5% LPS sensitized erythrocyte and 50 μl of 2-fold series diluted solution of 0.5% polypeptide at 37° C. for 1 hour.

[4] = tested on: C factor (activation with LPS derived from E. coli 0111 B4 strain); experiment: Inhibition of activation of C factor by LPS; assay type: biochemical, Horseshoe crab
Protocol: The acidic extract, concentrated and dried, was redissolved in 20mM HCl aq. soln. and then added into a Sephadex G-50 column (3.0×90.0 cm) (previously equilibrated with 20mM HCl aq. soln.) to effect gel filtration. The eluted fractions inhibiting activation of C factor with LPS (one derived from E. coli 0111 B4 strain was used) (Horseshoe crab blood coagulating serine protease precursor; LPS-sensitive factor named by the present inventors, Nakamura et al., Eur. J. Biochem., 154, 511 (1986 ) ) were collected, and the pH of the pooled fractions was adjusted to 6.0 with NaOH aq. soln.
The test results for the inhibition effect of the polypeptide (SEQ ID NO: 1) of the present invention against activation of C factor by LPS are shown in FIG. 2 and FIG. 3. FIG. 2 and FIG. 3 show the results in the absence or presence (1M) of sodium chloride, respectively. […] This property of binding electrically with LPS has been discovered by the present inventors. In FIG. 2 and FIG. 3, the marks (o) and show the results of the polypeptide of the present invention and polylysine, respectively.

[5] = tested on: Spleen cells (SC) of C57BL male mouse; experiment: Inhibition of blastogenesis of mouse lymphocyte by LPS (3H-TdR uptake, microscopy); assay type: cell-based; conditions: for magnification and colonization (blastogenesis) under the microscope: then 50 μg/ml LPS, three days; for inhibition of blastogenesis of lymphocyte: in the presence of LPS, 72 hours, 3H-TdR, FIG. 5
Protocol: Spleen cells (SC) of C57BL male mouse (5 weeks age) was collected by use of Ficoll-Hypaque gravity centrifugation and suspended in RPMI-1640 culture medium (no serum or added with BSA, FCS). The resulting culture medium was adjusted to 3×10^6 cell/ml and 100 μl was distributed into each of the 96-holes of a microtiter plate. 10 μl each of 0.4, 4, 40 and 400 μg/ml polypeptide of the present invention (LBP), finally then 80 μl of the culture medium, and finally 10 μl of 400 μg/ml LPS were added to the distibuted culture medium, followed by incubation in 5% CO2 incubator for 72 hours. ^3 H-thymidine (^3 H-TdR) was added thereto in an amount of 1 μci/10 μl 18 hours before completion of the incubation. The amount of ^3 H-TdR collected after peeling off of cells by use of cell harvester was measured by use of a liquid scintillation counter to discover the index of cell multiplication.
Cell multiplication was observed by using a microscope to take an insert image microphotograph.

[6] = tested on: Peripheral blood mononuclear cells of healthy human; experiment: Inhibition of blastogenesis of human peripheral lymphocyte by LPS (3H-TdR uptake); assay type: cell-based; conditions: 10 μg/ml LBP, 50 μg/ml LPS, 72 hours, FIG. 10
Protocol: Peripheral blood mononuclear cells (PBNC)of healthy human ([…]) were collected by use of Ficoll-Hypaque gravity centrifugation and suspended in RPMI-1640 culture medium (no serum or added with BSA, FCS). The resulting culture medium was adjusted to 2×10^6 cell/ml and 100 μl was distributed into each of the 96-holes of a microtiter plate. 10 μl of 200 μg/ml LBP, then 80 μl of the culture medium, and finally 10 μl of 400 μg/ml LPS were added to the distributed culture medium, followed by incubation in 5% CO2 incubator for, 72 hours. ^3 H-thymidine (^3 H-TdR) was added thereto in an amount of 1 μci/10 μl 18 hours before completion of the incubation. The amount of ^3 H-TdR collected after peeling of cells by use of cell harvester was measured by use of a liquid scintillation counter to discover the index of cell multiplication.

[7] = tested on: Salmonella typhimurium 1102(Re); experiment: Antibacterial activity; assay type: cell-based
Protocol: (§1) Twenty μl of a 2-fold series diluted solution containing 0.5% polypeptide (SEQ ID NO: 1) of the present invention and 20 μl of bacterium solution (10^6 to 10^7/ ml) were cultured onto 160 μl of a culture medium of Penassay or a synthetic medium of Jarvis. After 18 hours at 37° C., its turbidity was measured by use of a micro plate reader at 550 nm and also partial live bacteria number and inhibition circle were measured.

[8] = tested on: Salmonella minnesota 1114 W(S); experiment: Antibacterial activity; assay type: cell-based
Protocol: as §1

[9] = tested on: Salmonella typhimurium LT 2(S); experiment: Antibacterial activity; assay type: cell-based
Protocol: as §1

[10] = tested on: Staphylococcus aureus; experiment: Antibacterial activity; assay type: cell-based; conditions: Gram positive bacteria
Protocol: as §1

[11] = tested on: Salmonella minnesota R 595(Re); experiment: Antibacterial activity; assay type: cell-based
Protocol: as §1

[12] = tested on: bacteria; experiment: Antibacterial activity in general, inhibition circle on agar containing bacteria; assay type: cell-based
Protocol: as §1

With “polypeptide (SEQ ID NO: 1): 17 amino acid polypeptide isolated from Tachypleus tridentatus hemocyte and also made by solid phase synthesis; C-end arginine amidated (KWCFRVCYRGICYRRCR-NH2; cysteine pairing not given here)” the “sedimentation line with LPS in the double diffusion test” value ([1]; 1% agarose gel) was “form a sedimentation line”, the “sedimentation lines in the gel precipitation reaction” value ([1]; any LPS of Salmonella minnesota 1114 W, R595, E. coli 0111:B4, 0113 and J5) was “sharp sedimentation lines” and the “amount at which hemolysis of non-sensitized erythrocyte was observed” value [2] was ≥ 3.13 μ/ml. For the same substance, the “hemolysis activity compared with ALF” value ([3]; ALF = anti-LPS factor, basic protein of MW 11,600 from Tachypleus tridentatus hemocyte lysate) was “weaker than that of ALF”, the “effect of free LPS on hemolysis” value ([3]; free LPS added) was “hemolysis was inhibited by a free LPS” and the “hemolysis at room temperature” value ([3]; high concentration, room temperature) was “exhibited hemolysis with ease”. The “concentration inhibiting activation of C factor with LPS 50%” value ([4]; 0.1 μg/ml of LPS (E. coli 0111 B4)) was 0.12 µg/mL, the IC50 ([4]; 0.1 μg/ml of LPS (E. coli 0111 B4), read-out: concentration inhibiting activation of C factor with LPS 50%) was 50 nM and the “influence of salt concentration on inhibition of C factor activation by LPS” value ([4]; absence or presence (1M) of sodium chloride, FIG. 2 and FIG. 3, polylysine as control) was “strong affinity for LPS which is not influenced by the salt concentration”. For the same substance, the “binding activity between LBP and LPS, C factor activity inhibition as index” value ([4]; amount of LBP relative to amount of LPS) was “about 20 times amount of LPS amount”, the “inhibition of activation of C factor with LPS” value ([4]; at 1 μM (2.3 μg/ml) polypeptide, 0.1 μg/ml of LPS (E. coli 0111 B4)) was “completely” and the “magnification and colonization (blastogenesis) under the microscope” value (“magnification and colonization” below) ([5]; 0.2 μg/ml LBP, FIG. 7) was “few change were revealed”. The “magnification and colonization” value ([5]; 2 μg/ml LBP, FIG. 8) was “magnification and colonization were hardly revealed”, the “inhibition of blastogenesis of lymphocyte” value (“inhibition … of lymphocyte” below) ([5]; 2 μg/ml LBP) was ≥ 90% and the “magnification and colonization” value ([5]; 20 μg/ml LBP, FIG. 9) was “magnification and colonization were hardly revealed”. For the same substance, the “inhibition … of lymphocyte” value ([5]; 20 μg/ml LBP) was ≥ 90%, the “inhibition … of lymphocyte” value [6] was “approximately 100%” and the antibacterial activity [7] was “exhibited antibacterial activity”. For the same substance, the minimum antibacterial dose ([7]; 18 hours at 37° C.) was 1.56 µg/mL, the antibacterial activity [8] was “exhibited antibacterial activity” and the antibacterial activity [9] was “exhibited antibacterial activity”. The minimum antibacterial dose ([9]; 18 hours at 37° C.) was 3.13 µg/mL, the antibacterial activity [10] was “exhibited antibacterial activity” and the antibacterial activity [11] was “exhibited antibacterial activity”. For the same substance, the “antibacterial activity compared with ALF” value ([12]; ALF = anti-LPS factor from Tachypleus tridentatus hemocyte lysate) was “generally stronger than that of ALF” and the inhibition circle ([12]; on an agar containing bacteria) was “formed depending on the concentration”.
